# Experimental data: patent publication US20110318412A1, “LOW DOSE DOXEPIN FORMULATIONS, INCLUDING BUCCAL, SUBLINGUAL AND FASTMELT FORMULATIONS, AND USES OF THE SAME TO TREAT INSOMNIA” (Somaxon Pharmaceuticals, Inc., priority 2006, published 2011)
# Counter-ions that a name gives are not always drawn.
# How the values were obtained:
# [1] = Wu-Benet, 2005; cited from earlier work
# human subjects = assay: Sleep onset after a 3 mg doxepin hydrochloride capsule in human subjects; format: in vivo; conditions: human subjects averaging about 70 kg
# [2] = Doxepin plasma concentration after a 3 mg capsule in humans; format: in vivo, human
# Description: An estimate of the doxepin plasma concentrations associated with the initiation of sleep was obtained by combining data from multiple studies.
# In a separate study, in humans averaging about 70 kg, receiving a 3 mg capsule comprising doxepin hydrochloride, lactose monohydrate fast-flow, sodium lauryl sulfate and magnesium stearate, the average plasma concentration at 60 minutes was approximately 0.1 ng/mL.
# Without being limited, it is believed that the doxepin plasma concentration achieved approximately 1 hour after a 3 mg dose is sufficient for sleep initiation. The conclusion is that doxepin plasma concentrations of 0.1 ng/mL or greater were associated with initiation of sleep.
# [3] = Measured physicochemical parameters (logP, pKa) used for the simulation
# [4] = Measured bioavailability used for the simulation; conditions: in vivo
"concentration at 60 min ([2]; human, plasma, oral, humans averaging about 70 kg, 3 mg capsule, separate study)",logP [3],pKa [3],doxepin plasma concentration associated with initiation of sleep ([2]; estimate from combining data from multiple studies),bioavailability [4],Compound,Biopharmaceutic Classification System class [1],solubility (Biopharmaceutic Classification System) [1],sleep onset compared with a placebo dose (human subjects; 3 mg capsule),"time of sleep onset after dosing (human subjects; 3 mg capsule (doxepin hydrochloride, lactose monohydrate fast-flow, sodium lauryl sulfate, magnesium stearate))"
~0.1 ng/mL,–,–,–,–,CN(C)CCC=C1c2ccccc2COc2ccccc21 (mixture of isomers) [doxepin hydrochloride],Class One,high solubility,significantly earlier than with a placebo dose,about 60 minutes
–,4.13,8.96,≥ 0.1 ng/mL,29%,CN(C)CCC=C1c2ccccc2COc2ccccc21 (mixture of isomers) [doxepin],–,–,–,–
